Source: patent publication USRE39198E1, “Heteroarylpiperidines, pyrrolidines and piperazines and their use as antipsychotics and analgesics” (Aventis Pharmaceuticals Inc., priority 1989, dated 2006)

Compound | melting point [°C]
CC(=O)OCCN1CCC(c2noc3cc(F)ccc23)CC1.O=C(O)/C=C/C(=O)O | 154 to 155
O=C1c2ccccc2C(=O)N1CCN1CCC(c2noc3cc(F)ccc23)CC1 [N-[2-[4-(6-Fluoro-1,2-benzisoxazol-3-yl)-1-piperidinyl]ethyl]phthalimide] | 148 to 149
COc1cc(C(C)O)ccc1OCCCN1CCC(c2nsc3cc(F)ccc23)CC1 (stereo not drawn) [Example 145, 4-[3-[4-(6-Fluoro-1,2-benzisothiazol-3-yl)-1-piperidinyl]propoxy]-3-methoxy-alpha-methylbenzenemethanol] | 113 to 115
CC(=O)c1ccc(NCCCN2CCC(c3noc4cc(F)ccc34)CC2)c(O)c1 [Example 111, 1-[4-[3-[4-(6-Fluoro-1,2-benzisoxazol-3-yl)-1-piperidinyl]propylamino]-3-hydroxyphenyl]ethanone] | 150 to 152
Fc1ccc2c(C3CCN(CCN4CCOCC4)CC3)noc2c1 [Example 116, N-[2-[4-(6-Fluoro-1,2-benzisoxazol-3-yl)-1-piperidinyl]ethyl]morpholine] | 131 to 132
O=C1c2cc(Cl)c(Cl)cc2C(=O)N1CCN1CCC(c2noc3cc(F)ccc23)CC1 [Example 151, N-[2-[4-(6-Fluoro-1,2-benzisoxazol-3-yl)-1-piperidinyl]ethyl]-4,5-dichlorophthalimide] | 132 to 134
O=C1c2c(Cl)ccc(Cl)c2C(=O)N1CCN1CCC(c2noc3cc(F)ccc23)CC1 [Example 153, N-[2-[4-(6-Fluoro-1,2-benzisoxazol-3-yl)-1-piperidinyl]ethyl]-3,6-dichlorophthalimide] | 163 to 164
CCCCCCCCCC(=O)OCCCCN1CCC(c2noc3cc(F)ccc23)CC1.O=C(O)/C=C/C(=O)O [4-[4-(6-Fluoro-1,2-benzisoxazol-3-yl)-1-piperidinyl]butyl decanoate fumarate] | 109 to 110
Cl.O=C1[C@H]2CCCC[C@H]2C(=O)N1CCCCN1CCC(c2noc3cc(F)ccc23)CC1 | 229 to 231
COc1cc(C(C)=O)ccc1OCCCCN1CCC(c2n[nH]c3ccccc23)CC1 [Example 20, 1-[4-[4-[4(1H-indazol-3-yl)-1-piperidinyl]butoxy]-3-methoxyphenyl]ethanone] | 133 to 135
COc1ccc(NC(C)=O)cc1OCCCN1CCC(c2nsc3cc(F)ccc23)CC1 [Example 74, N-[3-[3-[4-(6-Fluoro-1,2-benzisothiazol-3-yl)-1-piperidinyl]propoxy]-4-methoxyphenyl]acetamide] | 109 to 111
COc1cc(C(C)=O)ccc1OCCCN1CCC(c2nsc3ccccc23)CC1 [Example 10, 1-[4-[3-[4-(1,2-Benzisothiazol-3-yl)-1-piperidinyl]-propoxy]-3-methoxyphenyl]ethanone] | 93 to 96
CCOC(=O)CCN1CCC(c2noc3cc(F)ccc23)CC1.O=C(O)/C=C/C(=O)O | 135 to 136
CC(C)(O)CCN1CCC(c2noc3cc(F)ccc23)CC1.O=C(O)/C=C/C(=O)O | 156 to 158
CC(=O)Nc1ccccc1OCCCN1CCC(c2noc3cc(F)ccc23)CC1 [Example 61, N-[2-[3-[4-(6-fluoro-1,2-benzoisoxazol-3-yl)-1-piperidinyl]propoxy]phenyl]acetamide] | 118 to 120
Nc1cccc(OCCCN2CCC(c3noc4cc(F)ccc34)CC2)c1 [Example 71, 3-[3-[4-(6-Fluoro-1,2-benzisoxazol-3-yl)-1-piperidinyl]propoxy]aniline] | 115 to 117
O=C1c2cccc(F)c2C(=O)N1CCN1CCC(c2noc3cc(F)ccc23)CC1 [Example 155, N-[2-[4-(6-Fluoro-1,2-benzisoxazol-3-yl)-1-piperidinyl]ethyl]-3-fluorophthalimide] | 142 to 143
Cc1ccc2c(c1)C(=O)N(CCN1CCC(c3noc4cc(F)ccc34)CC1)C2=O [Example 157, N-[2-[4-(6-Fluoro-1,2-benzisoxazol-3-yl)-1-piperidinyl]ethyl]-4-methylphthalimide] | 138 to 140

Compound | melting point [°C]
O=C(O)/C=C/C(=O)O.OCCCCN1CCC(c2noc3cc(F)ccc23)CC1 | 131 to 132
C[C@@H](CO)CN1CCC(c2noc3cc(F)ccc23)CC1.O=C(O)/C=C/C(=O)O | 114 to 115
CC(=O)OCCNCCN1CCC(c2noc3cc(F)ccc23)CC1.O=C(O)/C=C/C(=O)O | 116 to 118
COc1cc(C(C)=O)ccc1OCCN1CCN(c2nsc3ccccc23)CC1 [Example 39, 1-[4-[2-[4-(1,2-Benzisothiazol-3-yl)-1-piperazinyl]ethoxy]-3-methoxyphenyl]ethanone] | 98 to 100
CC(=O)NCCN1CCC(c2noc3cc(F)ccc23)CC1.O=C(O)/C=C/C(=O)O | 132 to 133
COc1cc(C(C)=O)ccc1OCCCN1CCC(c2nsc3cc(F)ccc23)CC1.Cl [1-[4-[3-[4-(6-Fluoro-1,2-benzisothiazol-3-yl)-1-piperidinyl]propoxy]-3-methoxyphenyl]ethanone hydrochloride] | 221 to 223
COc1cc(C(C)=O)ccc1OC/C=C/CN1CCC(c2noc3cc(F)ccc23)CC1 [Example 81, (E)-1-[4-[[4-[4-(6-Fluoro-1,2-benzisoxazol-3-yl)-1-piperidinyl]-2-butenyl]oxy]-3-methoxyphenyl]ethanone] | 91 to 93
Fc1ccc2c(C3CCN(CC4COc5ccccc5O4)CC3)noc2c1 (centres unmarked) [Example 91, 2-[4-(6-Fluoro-1,2-benzisoxazol-3-yl)-1-piperidinyl]methyl-1,4-benzodioxan] | 86 to 87
COc1cc(C(C)=O)ccc1OCCCN1CCC(c2n[nH]c3ccccc23)CC1 [Example 14, 1-[4-[3-[4-(1H-Indazol-3-yl)-1-piperidinyl]propoxy]-3-methoxyphenyl]ethanone] | 171 to 173
CC(=O)c1ccc(O)c(OC/C=C/CN2CCC(c3noc4cc(F)ccc34)CC2)c1.Cl | 208 to 210
CC(=O)c1ccc(OCc2ccccc2)c(OC/C=C/CN2CCC(c3noc4cc(F)ccc34)CC2)c1 [Example 85, (E)-1-[3-[[4-[4-(6-Fluoro-1,2-benzisoxazol-3-yl)-1-piperidinyl]-2-butenyl]oxy]-4-benzyloxyphenyl]ethanone] | 124 to 125
Cl.Cl.NCCCN1CCC(c2noc3cc(F)ccc23)CC1 [1-(3-Aminopropyl)-4-(6-fluoro-1,2-benzisoxazol-3-yl)-piperidine dihydrochloride] | 231 to 234
COCCN1CCC(c2noc3cc(F)ccc23)CC1.O=C(O)/C=C/C(=O)O | 157 to 158
COc1cc(C(C)=O)ccc1OCCN1CCN(c2n[nH]c3cc(Cl)ccc23)CC1 [Example 41, 1-[4-[2-[4-(6-Chloro-1H-indazol-3-yl)-1-piperazinyl]ethoxy]-3-methoxyphenyl]ethanone] | 154 to 156
CCOC(C)c1ccc(OCCCN2CCC(c3noc4cc(F)ccc34)CC2)c(OC)c1.Cl (centres unmarked) | 139 to 141
CC(=O)c1ccc2c(c1)oc(=O)n2CCCN1CCC(c2noc3cc(F)ccc23)CC1 [Example 94, N-[3-[4-(6-Fluoro-1,2-benzisoxazol-3-yl)-1-piperidinyl]propyl]-6-acetyl-2-benzoxazolinone] | 152 to 154
CCCCCCCCCC(=O)NCCN1CCC(c2noc3cc(F)ccc23)CC1.O=C(O)/C=C/C(=O)O | 108 to 110
